What was measured:
Assay type in all cases: in vivo, human
[1] = system: adult subjects with moderate to severe AA; experiment: Phase III trial: Patient Global Impression of Severity (PGI-S)
Procedure: The PGI-S was assessed by the subject and considered the severity of his/her alopecia areata at the time of assessment. The subject selected 1 of 7 numeric choices representing “Among the most extreme hair loss” to “Normal, no hair loss.” The definitions of the numeric choices is as follows: 1=normal, no hair loss; 2=borderline hair loss; 3=mild hair loss; 4=moderately hair loss; 5=marked hair loss; 6=severe hair loss; 7=among the most extreme hair loss.
(§1) A Phase III trial was conducted to assess the efficacy and safety of CTP-543 in adult subjects with moderate to severe AA. Approximately 440 adult male and female subjects 18 to 65 years of age, inclusive, with moderate to severe AA participated in the study. Subjects with definitive diagnosis of AA, and at least 50% hair loss, as defined by a SALT score ≥50, who met all of the inclusion criteria and none of the exclusion criteria participated in the study.
(§2) The Screening Period lasted up to 28 days prior to initiation of study drug. […] Randomization was stratified by scalp hair loss into 1 of the following 2 categories: 1) partial scalp hair loss (SALT ≥50 and <95), 2) complete or near complete scalp hair loss (SALT ≥95).
(§3) Additional secondary efficacy endpoints included the following: • Relative change in SALT scores from baseline at Weeks 4, 8, 12, 16, 20, and 24. • Percentage of responders (defined as “much improved” or “very much improved”) using the Clinical Global Impression of Improvement (CGI-I) at Weeks 12, 16, 20, and 24. • Percentage of responders (defined as “much improved” or “very much improved”) using the Patient Global Impression of Improvement (PGI-I) at Weeks 12, 16, 20, and 24. • Change from baseline in the Clinical Global Impression of Severity (CGI-S) at Weeks 12, 16, 20, and 24. • Change from baseline in the Patient Global Impression of Severity (PGI-S) at Weeks 12, 16, 20, and 24. • Change from baseline on the Brigham Eyebrow Tool for Alopecia (BETA) score at Weeks 12 and 24. • Change from baseline on the Brigham Eyelash Tool for Alopecia (BELA) score at Weeks 12 and 24. • Percentage of subjects achieving at least a 75% relative reduction in SALT score from baseline at Weeks 12 and 24. • Percentage of subjects achieving at least a 90% relative reduction in SALT score from baseline at Weeks 12 and 24. • Percentage of responders (defined as “satisfied” or “very satisfied”) on the SPRO scale at Weeks 12, 16, and 20. • Change from baseline in the SPRO scale at Weeks 12, 16, 20, and 24. • Percentage of subjects achieving a ≥2-point change from baseline in the SPRO scale at Weeks 12, 16, 20, and 24. • Change from baseline on the individual items of the Hair Quality Patient Reported Outcome (QPRO) scale at Weeks 12, 16, 20, and 24. • Change from baseline in the depression scale of the Hospital Anxiety and Depression Scale (HADS) at Week 24. • Change from baseline in the anxiety scale of the HADS at Week 24. • Percentage of subjects achieving an absolute SALT score of ≤20 at Week 4. • Percentage of subjects achieving an absolute SALT score of ≤10 at Week 24
A decrease from baseline indicates improvement (impression is decreased severity). The LS mean treatment group difference was in favor of the CTP-543 groups over the placebo group at all timepoints evaluated. […] Detailed data for each time point are described below.

[2] = system: adult subjects with moderate to severe AA; experiment: Phase III trial: Severity of Alopecia Tool (SALT) score; conditions: for percentages of participants (responders) stratified by duration of current AA episode: week 24
Procedure: The SALT score is calculated for a patient/subject by measuring the percentage of hair loss in each of the 4 areas of the scalp and adding the total to achieve a composite score (referred to herein as an absolute SALT score). Hair regrowth is reflected by a decrease in the SALT score.
Approximately 440 adult male and female subjects 18 to 65 years of age, inclusive, with moderate to severe AA participated in the study. Subjects with definitive diagnosis of AA, and at least 50% hair loss, as defined by a SALT score ≥50, who met all of the inclusion criteria and none of the exclusion criteria participated in the study.
as §2
Assessment of treatment response using SALT for efficacy occurred at 4, 8, 12, 16, 20 and 24 weeks.
The primary efficacy endpoint was the percentage of subjects achieving an absolute SALT score of ≤20.
as §3
• Clinical presentation compatible with alopecia areata with a current episode lasting at least 6 months and not exceeding 10 years at the time of Screening. Total disease duration greater than 10 years is permitted. • At least 50% scalp hair loss, as defined by a Severity of Alopecia Tool (SALT) score ≥50, at Screening and Baseline. • Willing to comply with the study visits and requirements of the study protocol.
This will include but is not limited to: • a. Platelets ≤100×109/L or ≥600×109/L • b. Absolute neutrophil count ≤1.5×109/L • c.

[3] = system: adult subjects with moderate to severe AA; experiment: Phase III trial: Brigham Eyebrow Tool for Alopecia (BETA)
Procedure: The BETA is a clinician-rated scale developed by dermatologists at Brigham and Women's Hospital that assesses the total eyebrow hair present (Tkachenko, E, et al., Brigham Eyebrow Tool for Alopecia: A Reliable Assessment of Eyebrow Alopecia Areata, Journal of Investigative Dermatology Symposium Proceedings (2020) 20, S41-S44). The BETA is calculated based on hair density (range 0 to 3) and surface area of each individual eyebrow. The BETA score is the sum of the right and left eyebrow scores (range 0 (absent) to 6). An expert panel of certified raters at Brigham and Women's Hospital performed central readings based on photographs of the eyebrows provided by the study sites and determined a score for each subject with eyebrow involvement following each visit where an assessment of eyebrow hair presence was assessed. The BETA was performed at baseline, Week 12, and Week 24. If a subject was unable to attend an in-person clinic visit due to COVID-19, the BETA may not have been performed due to the inability to take photographs of the eyebrows.
as §1
The Screening Period lasted up to 28 days prior to initiation of study drug. […] Randomization was stratified by scalp hair loss into 1 of the following 2 categories: 1) partial scalp hair loss (SALT ≥50 and <95), 2) complete or near complete scalp hair loss (SALT ≥95). […]

## [2H]C1([2H])C([C@@H](CC#N)n2cc(-c3ncnc4[nH]ccc34)cn2)C([2H])([2H])C([2H])([2H])C1([2H])[2H] [CTP-543, (R)-3-(4-(7H-pyrrolo[2,3-d]pyrimidin-4-yl)-1H-pyrazol-1-yl)-3-(cyclopentyl-2,2,3,3,4,4,5,5-d8) propanenitrile]
[1]; Week 12, 8 mg BID
  PGI-S, LS mean change from baseline: −1.6
[1]; Week 12, 12 mg BID
  PGI-S, LS mean change from baseline: −1.8
[1]; Week 16, 12 mg BID
  PGI-S, LS mean change from baseline: −2.0
[1]; Week 20, 8 mg BID
  PGI-S, LS mean change from baseline: −2.0
[1]; Week 20, 12 mg BID
  PGI-S, LS mean change from baseline: −2.2
[1]; Week 24, 8 mg BID
  PGI-S, LS mean change from baseline: −2.2
[1]; Week 24, 12 mg BID
  PGI-S, LS mean change from baseline: −2.5
[2]; Week 8, 12 mg BID
  percentage of subjects achieving an absolute SALT score of ≤20: 2.4%
[2]; Week 12, 8 mg BID
  percentage of subjects achieving an absolute SALT score of ≤20: 10.5%
[2]; Week 12, 12 mg BID
  percentage of subjects achieving an absolute SALT score of ≤20: 12.3%
[2]; Week 16, 8 mg BID
  percentage of subjects achieving an absolute SALT score of ≤20: 20.2%
[2]; Week 16, 12 mg BID
  percentage of subjects achieving an absolute SALT score of ≤20: 21.1%
[2]; Week 20, 12 mg BID
  percentage of subjects achieving an absolute SALT score of ≤20: 28.8%
[2]; Week 24, 8 mg BID
  percentage of subjects achieving an absolute SALT score of ≤20: 33%
[2]; Week 24, 12 mg BID
  percentage of subjects achieving an absolute SALT score of ≤20: 38.3%
  percentage of subjects with an absolute SALT score ≤10: 26.7%
[2]; Week 24, complete or near-complete scalp hair loss, 8 mg BID, 31/156
  subjects achieving SALT score ≤20: 20.9%
[2]; Week 24, complete or near-complete scalp hair loss, 8 mg BID, 37/184
  subjects achieving SALT score ≤20: 20.1%
[2]; Week 24, complete or near-complete scalp hair loss, 12 mg BID, 19/79
  subjects achieving SALT score ≤20: 26.0
[2]; Week 24, complete or near-complete scalp hair loss, 12 mg BID, 33/112
  subjects achieving SALT score ≤20: 29.5
[2]; Week 24, partial scalp hair loss at baseline, 8 mg BID, 46/93
  subjects achieving SALT score ≤20: 54.1%
[2]; Week 24, partial scalp hair loss at baseline, 8 mg BID, 57/134
  subjects achieving SALT score ≤20: 42.5%
[2]; Week 24, partial scalp hair loss at baseline, 12 mg BID, 27/48
  subjects achieving SALT score ≤20: 57.4%
[2]; Week 24, partial scalp hair loss at baseline, 12 mg BID, 50/88
  subjects achieving SALT score ≤20: 56.8%
[2]; two Phase 3 trials, THRIVE-AA1 and THRIVE-AA2
  hair regrowth vs placebo: significant improvements in hair regrowth vs placebo
[2]; week 8, 8 mg BID
  percentage of subjects achieving an absolute SALT score of ≤20: 2.9%
[2]; >4 years duration, 12 mg BID, 13/50
  percentages of participants (responders) stratified by duration of current AA episode: 28.9%
[2]; ≤4 years duration, 8 mg BID, 57/157
  percentages of participants (responders) stratified by duration of current AA episode: 38.3%
[2]; ≤4 years duration, 12 mg BID, 33/77
  percentages of participants (responders) stratified by duration of current AA episode: 44.0%
[3]; Week 12, 8 mg BID
  BETA score, LS mean change from baseline: 0.8
[3]; Week 12, 12 mg BID
  BETA score, LS mean change from baseline: 0.8
[3]; Week 24, 8 mg BID
  BETA score, LS mean change from baseline: 1.1
[3]; Week 24, 12 mg BID
  BETA score, LS mean change from baseline: 1.4

Source: patent US20250114367A1, “METHOD OF TREATING HAIR LOSS DISORDERS” (Sun Pharmaceutical Industries, Inc., priority 2023, published 2025)
